Key:
[1] = molecular target: T1, Type-2 angiotensin II receptor (Homo sapiens, UniProt P50052); assay type: cell-based; details: cho-k1; note: in other assays of this panel Not Active means under 50% inhibition at 10 µM
T1 sequence (P50052 whole entry): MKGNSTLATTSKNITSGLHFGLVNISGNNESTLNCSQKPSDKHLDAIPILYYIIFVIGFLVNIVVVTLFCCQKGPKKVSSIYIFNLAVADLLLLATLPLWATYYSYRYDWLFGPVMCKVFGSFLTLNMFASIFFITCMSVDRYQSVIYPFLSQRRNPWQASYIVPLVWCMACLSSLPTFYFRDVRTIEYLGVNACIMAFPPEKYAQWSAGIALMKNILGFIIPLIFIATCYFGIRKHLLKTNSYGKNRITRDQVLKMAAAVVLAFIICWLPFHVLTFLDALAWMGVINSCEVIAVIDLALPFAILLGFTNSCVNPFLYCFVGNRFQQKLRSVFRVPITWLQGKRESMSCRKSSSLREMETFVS

D(4) dopamine receptor = molecular target: T2, D(4) dopamine receptor (Homo sapiens, UniProt P21917); test: DRUGMATRIX: Dopamine D4.2 radioligand binding (ligand: [3H] Spiperone); assay type: cell membranes, CHO-K1, Membrane; details: cho-k1; Not Active = under 50% inhibition at 10 µM
T2 sequence (P21917 whole entry): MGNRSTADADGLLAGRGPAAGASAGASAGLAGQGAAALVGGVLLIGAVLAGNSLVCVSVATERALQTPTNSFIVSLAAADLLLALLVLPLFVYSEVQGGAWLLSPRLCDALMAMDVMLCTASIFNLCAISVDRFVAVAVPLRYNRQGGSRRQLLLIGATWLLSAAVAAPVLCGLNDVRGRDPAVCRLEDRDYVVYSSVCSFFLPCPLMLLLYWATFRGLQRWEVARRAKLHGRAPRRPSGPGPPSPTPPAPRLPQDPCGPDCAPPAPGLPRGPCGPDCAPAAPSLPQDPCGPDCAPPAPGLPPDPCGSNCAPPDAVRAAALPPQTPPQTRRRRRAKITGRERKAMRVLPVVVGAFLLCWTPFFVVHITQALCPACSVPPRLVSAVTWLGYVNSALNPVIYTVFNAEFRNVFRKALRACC

[2] = DRUGMATRIX: GABAA, Flunitrazepam, Central radioligand binding (ligand: [3H] Flunitrazepam); assay type: cell membranes, Rattus norvegicus, Wistar, Brain, Membrane; details: Not Active = under 50% inhibition at 10 µM
Leukotriene C4 synthase = molecular target: T3, Leukotriene C4 synthase (Cavia porcellus, UniProt A6XA80); test: biochemical; assay type: tissue-based, Lung;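 note: enzyme inhibition assay of leukotriene C4 synthase, using LTA4 as the substrate; in other assays of this panel Not Active means under 50% inhibition at 10 µM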
T3 sequence (A6XA80 whole entry): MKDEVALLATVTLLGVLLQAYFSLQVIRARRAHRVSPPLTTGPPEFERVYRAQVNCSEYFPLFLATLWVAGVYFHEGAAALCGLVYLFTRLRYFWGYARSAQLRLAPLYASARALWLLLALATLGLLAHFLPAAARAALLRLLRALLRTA

[3] = molecular target: T4, Cysteinyl leukotriene receptor 1 (Homo sapiens, UniProt Q9Y271); assay type: cell membranes, CHO-K1, Membrane; details: cho-k1; note: in other assays of this panel Not Active means under 50% inhibition at 10 µM
T4 sequence (Q9Y271 whole entry): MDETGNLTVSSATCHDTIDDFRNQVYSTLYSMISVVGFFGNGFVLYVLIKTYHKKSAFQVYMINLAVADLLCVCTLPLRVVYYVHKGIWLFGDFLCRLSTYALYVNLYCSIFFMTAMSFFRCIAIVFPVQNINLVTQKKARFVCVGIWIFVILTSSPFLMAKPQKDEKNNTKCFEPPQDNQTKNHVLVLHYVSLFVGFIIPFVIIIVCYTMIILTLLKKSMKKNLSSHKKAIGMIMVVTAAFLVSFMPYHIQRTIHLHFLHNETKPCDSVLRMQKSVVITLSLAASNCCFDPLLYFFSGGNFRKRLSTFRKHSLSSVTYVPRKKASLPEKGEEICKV

[4] = molecular target: T5, Amine oxidase [flavin-containing] A (Homo sapiens, UniProt P21397); test: DRUGMATRIX: Monoamine Oxidase MAO-A enzyme inhibition (substrate: Kynuramine); design: species or system BTI-TN-5B1-4; details: bti-tn-5b1-4; Not Active = under 50% inhibition at 10 µM
T5 sequence (P21397 whole entry): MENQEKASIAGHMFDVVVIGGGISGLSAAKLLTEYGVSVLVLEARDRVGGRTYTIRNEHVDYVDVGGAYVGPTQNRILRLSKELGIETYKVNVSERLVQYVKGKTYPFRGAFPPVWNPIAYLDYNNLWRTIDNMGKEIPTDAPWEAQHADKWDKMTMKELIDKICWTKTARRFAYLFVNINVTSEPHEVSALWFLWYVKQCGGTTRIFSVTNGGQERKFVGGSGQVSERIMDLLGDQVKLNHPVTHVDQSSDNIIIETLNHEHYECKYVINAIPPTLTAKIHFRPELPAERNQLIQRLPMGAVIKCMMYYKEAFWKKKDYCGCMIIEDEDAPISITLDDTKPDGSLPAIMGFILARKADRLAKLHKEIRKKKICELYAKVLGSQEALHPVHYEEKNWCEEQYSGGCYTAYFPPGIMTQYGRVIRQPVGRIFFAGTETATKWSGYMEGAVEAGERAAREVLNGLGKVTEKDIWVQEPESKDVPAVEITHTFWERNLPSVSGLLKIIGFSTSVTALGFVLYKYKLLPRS

Adenosine receptor A2a = Adenosine receptor A2a (Homo sapiens, UniProt P29274); test: DRUGMATRIX: Adenosine A2A radioligand binding (ligand: […]); assay type: cell membranes, HEK293, Membrane; details: hek293; Not Active = under 50% inhibition at 10 µM
Adenosine receptor A2a, sequence (P29274 whole entry): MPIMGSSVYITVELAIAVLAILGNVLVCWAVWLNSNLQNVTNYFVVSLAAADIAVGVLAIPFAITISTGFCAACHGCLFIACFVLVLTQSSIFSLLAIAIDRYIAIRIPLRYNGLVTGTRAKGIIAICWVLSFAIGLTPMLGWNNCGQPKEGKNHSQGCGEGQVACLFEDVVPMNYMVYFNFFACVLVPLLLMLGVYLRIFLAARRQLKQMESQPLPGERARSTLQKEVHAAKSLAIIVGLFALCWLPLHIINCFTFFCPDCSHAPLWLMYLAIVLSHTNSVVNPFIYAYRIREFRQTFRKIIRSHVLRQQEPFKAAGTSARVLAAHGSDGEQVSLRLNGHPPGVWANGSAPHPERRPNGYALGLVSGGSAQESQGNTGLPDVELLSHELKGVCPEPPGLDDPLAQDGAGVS

| Molecule | IC50 [1] | IC50 (D(4) dopamine receptor) | IC50 [2] | Ki [2] | IC50 (Leukotriene C4 synthase) | IC50 [3] | IC50 [4] | IC50 (Adenosine receptor A2a) | Ki [1] | Ki (D(4) dopamine receptor) | Ki (Leukotriene C4 synthase) | Ki [3] | Ki [4] | Ki (Adenosine receptor A2a) | IC50 (Leukotriene C4 synthase; read-out: IC50) | IC50 ([2]; read-out: IC50) | Ki ([2]; read-out: Ki) |
| --- | --- | --- | --- | --- | --- | --- | --- | --- | --- | --- | --- | --- | --- | --- | --- | --- | --- |
| CO[C@@H]1[C@@H](OC)[C@H](C)[C@@](O)(CC(=O)O)O[C@H]1[C@H](C)[C@H]1O[C@@]2(CC[C@@](C)([C@H]3CC[C@@](C)([C@@H]4O[C@@H]([C@H]5O[C@](C)(O)[C@H](C)C[C@@H]5C)C[C@@H]4O[C@@H]4C[C@H](OC)[C@@H](OC)[C@H](C)O4)O3)O2)C[C@H](O)[C@H]1C.N [MADURAMICIN] | Not Active | Not Active | Not Active | Not Active | Not Active | Not Active | Not Active | Not Active | – | – | – | – | – | – | – | – | – |
| LEAD(IV) ACETATE | Not Active | Not Active | Not Active | Not Active | Not Active | Not Active | Not Active | Not Active | Not Active | Not Active | Not Active | Not Active | Not Active | Not Active | – | – | – |
| O=C(c1ccccc1)c1ccc2n1CCC2C(=O)O (centres undefined) [KETOROLAC] | Not Active | Not Active | Not Active | Not Active | Not Active | Not Active | Not Active | Not Active | – | – | – | – | – | – | – | – | – |
| CC[C@H](C)[C@@H](CO[C@@H](Cc1ccccc1)C(=O)N[C@@H](CCS(C)(=O)=O)C(=O)OC(C)C)NC[C@@H](N)CS | Not Active | Not Active | Not Active | Not Active | Not Active | Not Active | Not Active | Not Active | – | – | – | – | – | – | – | – | – |
| CN1C(=O)OC(C)(C)C1=O [TRIMETHADIONE] | Not Active | Not Active | Not Active | Not Active | Not Active | Not Active | Not Active | Not Active | – | – | – | – | – | – | – | – | – |
| CCC(C)(C)C(=O)O[C@H]1C[C@@H](C)C=C2C=C[C@H](C)[C@H](CC[C@@H]3C[C@@H](O)CC(=O)O3)[C@H]21 [SIMVASTATIN] | Not Active | Not Active | Not Active | Not Active | Not Active | Not Active | Not Active | Not Active | – | – | – | – | – | – | – | – | – |
| Cc1ccc(S(=O)(=O)NC(=O)NN2CCCCCC2)cc1 [TOLAZAMIDE] | Not Active | Not Active | Not Active | Not Active | Not Active | Not Active | Not Active | Not Active | – | – | – | – | – | – | – | – | – |
| CC(Cl)(Cl)Cl [TRICHLOROETHANE] | Not Active | Not Active | Not Active | Not Active | Not Active | Not Active | Not Active | Not Active | – | – | – | – | – | – | – | – | – |
| CC(C)(C)NC[C@H](O)COc1cccc2c1CCCC2=O [LEVOBUNOLOL] | Not Active | Not Active | Not Active | Not Active | Not Active | Not Active | Not Active | Not Active | – | – | – | – | – | – | – | – | – |
| CCN1CCCC1CNC(=O)c1cc(S(N)(=O)=O)ccc1OC (centres undefined) [SULPIRIDE] | Not Active | Not Active | Not Active | Not Active | Not Active | Not Active | Not Active | Not Active | – | – | – | – | – | – | – | – | – |
| Cc1cccc(C)c1NC(=O)C(C)N (centres undefined) [TOCAINIDE] | Not Active | Not Active | Not Active | Not Active | Not Active | Not Active | Not Active | Not Active | – | – | – | – | – | – | – | – | – |
| CCOC(=O)C1=C(C)NC(C)=C(C(=O)OCC)C1c1ccccc1/C=C/C(=O)OC(C)(C)C [LACIDIPINE] | Not Active | Not Active | Not Active | Not Active | Not Active | Not Active | Not Active | Not Active | – | – | – | – | – | – | – | – | – |
| C=CCc1ccc2c(c1)OCO2 [SAFROLE] | Not Active | Not Active | Not Active | Not Active | Not Active | Not Active | Not Active | Not Active | – | – | – | – | – | – | – | – | – |
| O=C(OC[C@H]1O[C@@H](OC(=O)c2cc(O)c(O)c(OC(=O)c3cc(O)c(O)c(O)c3)c2)[C@H](OC(=O)c2cc(O)c(O)c(OC(=O)c3cc(O)c(O)c(O)c3)c2)[C@@H](OC(=O)c2cc(O)c(O)c(OC(=O)c3cc(O)c(O)c(O)c3)c2)[C@@H]1OC(=O)c1cc(O)c(O)c(OC(=O)c2cc(O)c(O)c(O)c2)c1)c1cc(O)c(O)c(OC(=O)c2cc(O)c(O)c(O)c2)c1 [TANNIC ACID] | Not Active | Not Active | Not Active | Not Active | – | Not Active | Not Active | Not Active | – | – | – | – | – | – | 2.72 µM | – | – |
| CO[C@@]12[C@H](COC(N)=O)C3=C(C(=O)C(C)=C(N)C3=O)N1C[C@@H]1N[C@@H]12 [MITOMYCIN] | Not Active | Not Active | Not Active | Not Active | Not Active | Not Active | Not Active | Not Active | – | – | – | – | – | – | – | – | – |
| CN1C[C@H](CNC(=O)OCc2ccccc2)C[C@@H]2c3cccc4c3c(cn4C)C[C@H]21 [METERGOLINE] | Not Active | Not Active | Not Active | Not Active | Not Active | Not Active | Not Active | Not Active | – | – | – | – | – | – | – | – | – |
| Cc1[nH]c(=O)c(C#N)cc1-c1ccncc1 [MILRINONE] | Not Active | Not Active | Not Active | Not Active | Not Active | Not Active | Not Active | Not Active | – | – | – | – | – | – | – | – | – |
| O=C1CC[C@@]2(O)[C@H]3Cc4ccc(O)c5c4[C@@]2(CCN3CC2CC2)[C@H]1O5 [NALTREXONE] | Not Active | Not Active | Not Active | Not Active | Not Active | Not Active | Not Active | Not Active | – | – | – | – | – | – | – | – | – |
| COC(=O)Nc1nc2ccc(C(=O)c3ccccc3)cc2[nH]1 [MEBENDAZOLE] | Not Active | Not Active | Not Active | Not Active | Not Active | Not Active | Not Active | Not Active | – | – | – | – | – | – | – | – | – |
| CC(=O)O[C@]1(C(C)=O)CC[C@H]2[C@@H]3C[C@H](C)C4=CC(=O)CC[C@]4(C)[C@H]3CC[C@@]21C [MEDROXYPROGESTERONE ACETATE] | Not Active | Not Active | – | – | Not Active | Not Active | Not Active | Not Active | – | – | – | – | – | – | – | 7.74 µM | 6.3 µM |
| Cc1cn([C@H]2C=C[C@@H](CO)O2)c(=O)[nH]c1=O [STAVUDINE] | Not Active | Not Active | Not Active | Not Active | Not Active | Not Active | Not Active | Not Active | – | – | – | – | – | – | – | – | – |
